This is an account of results in ChEMBL document CHEMBL1136196, “Synthesis of three enantiomeric pairs of scyllo-inositol phosphate and molecular interactions between all possible regioisomers of scyllo-inositol phosphate and inositol 1,4,5-trisphosphate 3-kinase” (Bioorg Med Chem Lett, 2003).

A value given as a limit tells only on which side of the number the result lay.

Inositol-trisphosphate 3-kinase A, sequence (P17105 whole entry): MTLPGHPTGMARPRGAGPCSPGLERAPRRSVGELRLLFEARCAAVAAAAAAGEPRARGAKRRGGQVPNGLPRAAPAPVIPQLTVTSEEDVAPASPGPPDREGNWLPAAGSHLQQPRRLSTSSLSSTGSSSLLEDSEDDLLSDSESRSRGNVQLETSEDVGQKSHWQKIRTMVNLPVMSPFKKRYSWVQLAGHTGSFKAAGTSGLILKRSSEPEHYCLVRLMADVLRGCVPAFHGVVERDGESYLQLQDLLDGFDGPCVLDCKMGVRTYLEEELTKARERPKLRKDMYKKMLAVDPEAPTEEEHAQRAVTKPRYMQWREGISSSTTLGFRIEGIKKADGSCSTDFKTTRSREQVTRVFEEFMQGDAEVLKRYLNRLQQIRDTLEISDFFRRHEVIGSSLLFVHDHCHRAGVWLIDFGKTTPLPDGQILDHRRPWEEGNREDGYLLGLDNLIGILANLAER

This experiment has as its target Inositol-trisphosphate 3-kinase A (Rattus norvegicus, UniProt P17105). The experiment is described as follows: Binding affinity against recombinant plasmid rat brain IP3K by overexpressing in Escherichia coli.
In the case of `O=P(O)(O)O[C@H]1[C@H](OP(=O)(O)O)[C@H](O)[C@H](O)[C@@H](O)[C@@H]1OP(=O)(O)O`, the IC50 amounted to 27.4 µM.

As to `O=P(O)(O)O[C@@H]1[C@H](O)[C@H](O)[C@@H](OP(=O)(O)O)[C@H](OP(=O)(O)O)[C@H]1O` (stereo in doubt; form 2) [INS(1,4,5)P3], the concentration for half-maximal inhibition (IC50) came out at 6.3 µM.

With `O=P(O)(O)O[C@H]1[C@H](O)[C@@H](OP(=O)(O)O)[C@H](OP(=O)(O)O)[C@@H](OP(=O)(O)O)[C@H]1O`, the IC50 amounted to 27.8 µM.

For `O=P(O)(O)O[C@H]1[C@H](OP(=O)(O)O)[C@H](OP(=O)(O)O)[C@H](O)[C@@H](O)[C@H]1OP(=O)(O)O`, the IC50 is more than 100 µM.

Take `O=P(O)(O)O[C@H]1[C@H](OP(=O)(O)O)[C@@H](OP(=O)(O)O)[C@H](O)[C@@H](O)[C@H]1OP(=O)(O)O`: the IC50 was more than 100 µM.

For the compound `O=P(O)(O)O[C@@H]1[C@H](O)[C@H](O)[C@@H](OP(=O)(O)O)[C@H](OP(=O)(O)O)[C@H]1O` (stereo in doubt; form 1) [INS(1,4,5)P3], the 50% inhibitory concentration (IC50) came out at 2.6 µM.

As to `O=P(O)(O)O[C@@H]1[C@H](O)[C@H](O)[C@@H](OP(=O)(O)O)[C@H](OP(=O)(O)O)[C@H]1O` (stereo in doubt; form 3) [INS(1,4,5)P3], the IC50 worked out at 43.7 µM.

`O=P(O)(O)O[C@H]1[C@@H](O)[C@@H](OP(=O)(O)O)[C@H](OP(=O)(O)O)[C@@H](OP(=O)(O)O)[C@@H]1O`: the concentration for half-maximal inhibition (IC50) amounted to 39.4 µM.

On to `O=P(O)(O)O[C@H]1[C@H](O)[C@@H](OP(=O)(O)O)[C@H](O)[C@@H](OP(=O)(O)O)[C@H]1O`, for which the half-inhibitory concentration (IC50) is 90 µM.

The IC50 is the concentration needed to halve the response being measured.
